In patent US20240299359A1, “PHARMACEUTICAL COMPOSITION FOR ANIMALS CONTAINING 5-HYDROXY-METHYLIMIDAZOLIDINE-2,4-DIONE COMPOUND AS ACTIVE INGREDIENT” (KYONGBO PHARM. CO., LTD., priority 2021, published 2024):
Values joined by “and” are separate entries in the source; they are usually repeats but may differ in a detail not shown here. Identical values can stand only once.

How the values were obtained:
[1] = 13-week repeated oral toxicity: feed intake; format: in vivo, beagle; settings: repeated oral once a day for 13 weeks
Procedure: During the 13-week test period starting from the day before administration, feed intake was measured a total of 14 times before administration (pre) and every week on the weight measurement day for 13 weeks after the first administration. Approximately 200 g/day/head of solid feed was injected into a feed container at a predetermined time on the day before the weight measurement day and consumed freely. After 24 hours, the remaining feed was measured the next day.

beagles = test: 13-week repeated oral toxicity: observation of general symptoms; format: in vivo; settings: repeated oral once a day for 13 weeks
Procedure: Furthermore, the present inventors performed a toxicity test on 5-hydroxy-1-methylimidazolidine-2,4-dione in beagles. Toxicity tests were conducted based on single oral administration and repeated oral administration for 13 weeks. The stability of the compound was analyzed by evaluating the analysis items including clinical symptoms, weight, feed intake, blood test, urine and eye test during the administration period.
General symptoms (such as vomiting, salivation, diarrhea, and abnormal behavior) and death were observed daily during the 13-week test period, starting from the day before administration, and abnormalities were recorded in clinical symptoms.

[2] = 13-week repeated oral toxicity: weight measurement; format: in vivo, beagle
Procedure: During the 13-week test period starting from the day before administration, the weight was measured a total of 15 times before administration (pre), before administration on the day of administration, and every week over the 13-week test period after the first administration at a predetermined time (remaining feed measurement time) before administration of the test substance (on every Tuesday during the test period).

In the case of `CN1C(=O)NC(=O)C1O` (stereo not drawn) [KBP-001, 5-hydroxy-1-methylimidazolidine-2,4-dione], the feed intake [1] is reported as “no significant difference in feed intake between respective groups”, the “general symptoms and deaths” value (beagles) is reported as “no unusual symptoms (vomiting, salivation, diarrhea, behavioral abnormalities, etc.) or deaths occurred” and the Weight ([2]; 200 mg/kg repeated oral (G2), female, week 0, individual animals) is reported as 9.6 (2×) and 9.1. The Weight, Mean ([2]; 200 mg/kg repeated oral (G2), female, week 0, mean) was 9.4 kg, the Weight ([2]; 200 mg/kg repeated oral (G2), female, week 1, individual animals, in kg (unit assumed)) was 9.5 and 9.3 and 9.9 and the Weight, Mean ([2]; 200 mg/kg repeated oral (G2), female, week 1, mean) was 9.6 kg. For the same molecule, the Weight ([2]; 200 mg/kg repeated oral (G2), female, week 2, individual animals, in kg (unit assumed)) was 9.4 and 9.2 and 9.8, the Weight, Mean ([2]; 200 mg/kg repeated oral (G2), female, week 2, mean) was 9.5 kg and the Weight ([2]; 200 mg/kg repeated oral (G2), female, week 3, individual animals, in kg (unit assumed)) was 9.4 and 9.1 and 9.9. The Weight, Mean ([2]; 200 mg/kg repeated oral (G2), female, week 3, mean) was 9.5 kg, the Weight ([2]; 200 mg/kg repeated oral (G2), female, week 4, individual animals, in kg (unit assumed)) was 9.7 and 9.4 and 9.9 and the Weight, Mean ([2]; 200 mg/kg repeated oral (G2), female, week 4, mean) was 9.7 kg. The Weight ([2]; 200 mg/kg repeated oral (G2), female, week 5, individual animals, in kg (unit assumed)) was 9.7 and 9.4 and 9.9, the Weight, Mean ([2]; 200 mg/kg repeated oral (G2), female, week 5, mean) was 9.7 kg and the Weight ([2]; 200 mg/kg repeated oral (G2), female, week 6, individual animals) was 9.6 (2×) and 9.1. The Weight, Mean ([2]; 200 mg/kg repeated oral (G2), female, week 6, mean) was 9.4 kg, the Weight ([2]; 200 mg/kg repeated oral (G2), female, week 7, individual animals, in kg (unit assumed)) was 9.6 and 9.3 and 9.7 and the Weight, Mean ([2]; 200 mg/kg repeated oral (G2), female, week 7, mean) was 9.5 kg. For the same molecule, the Weight ([2]; 200 mg/kg repeated oral (G2), female, week 8, individual animals, in kg (unit assumed)) was 9.5 and 9.3 and 9.8, the Weight, Mean ([2]; 200 mg/kg repeated oral (G2), female, week 8, mean) was 9.5 kg and the Weight ([2]; 200 mg/kg repeated oral (G2), female, week 9, individual animals, in kg (unit assumed)) was 9.6 and 9.4 and 9.9. For the same molecule, the Weight, Mean ([2]; 200 mg/kg repeated oral (G2), female, week 9, mean) was 9.6 kg, the Weight ([2]; 200 mg/kg repeated oral (G2), female, week 10, individual animals, in kg (unit assumed)) was 9.6 and 9.3 and 10.0 and the Weight, Mean ([2]; 200 mg/kg repeated oral (G2), female, week 10, mean) was 9.6 kg. For the same molecule, the Weight ([2]; 200 mg/kg repeated oral (G2), female, week 11, individual animals) was 9.5 (2×) and 10.1, the Weight, Mean ([2]; 200 mg/kg repeated oral (G2), female, week 11, mean) was 9.7 kg and the Weight ([2]; 200 mg/kg repeated oral (G2), female, week 12, individual animals, in kg (unit assumed)) was 9.6 and 9.5 and 10.0. The Weight, Mean ([2]; 200 mg/kg repeated oral (G2), female, week 12, mean) was 9.7 kg, the Weight ([2]; 200 mg/kg repeated oral (G2), female, week 13, individual animals, in kg (unit assumed)) was 9.7 and 9.5 and 10.2 and the Weight, Mean ([2]; 200 mg/kg repeated oral (G2), female, week 13, mean) was 9.8 kg. For the same molecule, the Weight ([2]; 200 mg/kg repeated oral (G2), female, week pre, individual animals) was 9.6 (2×) and 9.1, the Weight, Mean ([2]; 200 mg/kg repeated oral (G2), female, week pre, mean) was 9.4 kg and the Weight ([2]; 200 mg/kg repeated oral (G2), male, week 0, individual animals) was 10.1 (2×) and 10.2. For the same molecule, the Weight, Mean ([2]; 200 mg/kg repeated oral (G2), male, week 0, mean) was 10.1 kg, the Weight ([2]; 200 mg/kg repeated oral (G2), male, week 1, individual animals) was 10.1 (2×) and 10.2 and the Weight, Mean ([2]; 200 mg/kg repeated oral (G2), male, week 1, mean) was 10.1 kg. The Weight ([2]; 200 mg/kg repeated oral (G2), male, week 2, individual animals, in kg (unit assumed)) was 9.9 and 10.1 and 10.0, the Weight, Mean ([2]; 200 mg/kg repeated oral (G2), male, week 2, mean) was 10 kg and the Weight ([2]; 200 mg/kg repeated oral (G2), male, week 3, individual animals) was 10.0 and 10.1 (2×). For the same molecule, the Weight, Mean ([2]; 200 mg/kg repeated oral (G2), male, week 3, mean) was 10.1 kg, the Weight ([2]; 200 mg/kg repeated oral (G2), male, week 4, individual animals) was 10.0 and 10.3 (2×) and the Weight, Mean ([2]; 200 mg/kg repeated oral (G2), male, week 4, mean) was 10.2 kg. For the same molecule, the Weight ([2]; 200 mg/kg repeated oral (G2), male, week 5, individual animals, in kg (unit assumed)) was 10.1 and 10.5 and 10.3, the Weight, Mean ([2]; 200 mg/kg repeated oral (G2), male, week 5, mean) was 10.3 kg and the Weight ([2]; 200 mg/kg repeated oral (G2), male, week 6, individual animals, in kg (unit assumed)) was 10.0 and 10.1 and 10.3. The Weight, Mean ([2]; 200 mg/kg repeated oral (G2), male, week 6, mean) was 10.1 kg, the Weight ([2]; 200 mg/kg repeated oral (G2), male, week 7, individual animals) was 10.1 and 10.3 (2×) and the Weight, Mean ([2]; 200 mg/kg repeated oral (G2), male, week 7, mean) was 10.2 kg. For the same molecule, the Weight ([2]; 200 mg/kg repeated oral (G2), male, week 8, individual animals, in kg (unit assumed)) was 10.1 and 10.3 and 10.2, the Weight, Mean ([2]; 200 mg/kg repeated oral (G2), male, week 8, mean) was 10.2 kg and the Weight ([2]; 200 mg/kg repeated oral (G2), male, week 9, individual animals, in kg (unit assumed)) was 10.1 and 10.4 and 10.3. For the same molecule, the Weight, Mean ([2]; 200 mg/kg repeated oral (G2), male, week 9, mean) was 10.3 kg, the Weight ([2]; 200 mg/kg repeated oral (G2), male, week 10, individual animals, in kg (unit assumed)) was 10.2 and 10.4 and 10.3 and the Weight, Mean ([2]; 200 mg/kg repeated oral (G2), male, week 10, mean) was 10.3 kg. The Weight ([2]; 200 mg/kg repeated oral (G2), male, week 11, individual animals, in kg (unit assumed)) was 10.1 and 10.4 and 10.3, the Weight, Mean ([2]; 200 mg/kg repeated oral (G2), male, week 11, mean) was 10.3 kg and the Weight ([2]; 200 mg/kg repeated oral (G2), male, week 12, individual animals) was 10.2 (2×) and 10.4. The Weight, Mean ([2]; 200 mg/kg repeated oral (G2), male, week 12, mean) was 10.3 kg, the Weight ([2]; 200 mg/kg repeated oral (G2), male, week 13, individual animals) was 10.2 (2×) and 10.4 and the Weight, Mean ([2]; 200 mg/kg repeated oral (G2), male, week 13, mean) was 10.3 kg. For the same molecule, the Weight ([2]; 200 mg/kg repeated oral (G2), male, week pre, individual animals, in kg (unit assumed)) was 10.1 and 10.3 and 10.2, the Weight, Mean ([2]; 200 mg/kg repeated oral (G2), male, week pre, mean) was 10.2 kg and the Weight, Mean ([2]; 500 mg/kg repeated oral (G3), female, week 0, mean) was 9.5 kg. For the same molecule, the Weight, Mean ([2]; 500 mg/kg repeated oral (G3), female, week 1, mean) was 9.6 kg, the Weight, Mean ([2]; 500 mg/kg repeated oral (G3), female, week 2, mean) was 9.5 kg and the Weight, Mean ([2]; 500 mg/kg repeated oral (G3), female, week 3, mean) was 9.6 kg.
